Values quoted from earlier work, collected in patent US20240401031A1, “Platform Using iPSC-Derived Cardiomyocytes Carrying Gene Variants as Models of Cardiac Disease and Drug-Response” (SRI INTERNATIONAL, priority 2021, published 2024).

Settings: source CredibleMeds

SMILES	Risk (Torsade de Pointes)
CCOC(=O)C1=C(C)NC(C)=C(C(=O)OCC)C1c1ccccc1/C=C/C(=O)OC(C)(C)C [Lacidipine]	(PR)
CCc1nc(C(N)=O)c(Nc2ccc(N3CCC(N4CCN(C)CC4)CC3)c(OC)c2)nc1NC1CCOCC1 [Gilteritinib]	(PR)
CCC(=O)C(CC(C)N(C)C)(c1ccccc1)c1ccccc1 (centres unmarked) [Methadone]	(KR)
CC[C@@H]([C@H](C)O)n1ncn(-c2ccc(N3CCN(c4ccc(OC[C@@H]5CO[C@@](Cn6cncn6)(c6ccc(F)cc6F)C5)cc4)CC3)cc2)c1=O [Posaconazole]	(CR)
COc1cc2c(cc1OC)CC(=O)N(CCCN(C)C[C@H]1Cc3cc(OC)c(OC)cc31)CC2 [Ivabradine]	(CR)
C=C1C[C@@H]2CC[C@@]34C[C@H]5O[C@H]6[C@@H](O3)[C@H]3O[C@H](CC[C@@H]3O[C@H]6[C@H]5O4)CC(=O)C[C@@H]3[C@@H](OC)[C@@H](C[C@H](O)CN)O[C@H]3C[C@H]3O[C@@H](CC[C@@H]1O2)C[C@@H](C)C3=C [Eribulin]	(PR)
CCC(=O)C(C[C@@H](C)N(C)C)(c1ccccc1)c1ccccc1 [Levomethadone]	(PR)
COC(=O)[C@H]1[C@@H](OC(=O)c2ccccc2)C[C@@H]2CC[C@H]1N2C [Cocaine]	(KR)
Cc1[nH]c2ccccc2c1CCNCc1ccc(/C=C/C(=O)NO)cc1 [Panobinostat]	(PR)
O=C1Nc2ccc(Cl)cc2[C@@](C#CC2CC2)(C(F)(F)F)O1 [Efavirenz]	(PR)
O=[N+]([O-])c1cn2c(n1)OC[C@@H](OCc1ccc(OC(F)(F)F)cc1)C2 [Pretomanid]	(PR)
Cc1nc2n(c(=O)c1CCN1CCC(c3noc4cc(F)ccc34)CC1)CCCC2O (centres unmarked) [Paliperidone]	(PR)
CN[C@@H](C)Cc1ccccc1 [Methamphetamine]	(SR)
O=c1n(CCCN2CCN(c3cccc(Cl)c3)CC2)nc2ccccn12 [Trazodone]	(CR)
COc1cc2nc(N(C)CCCNC(=O)C3CCCO3)nc(N)c2cc1OC (centres unmarked) [Alfuzosin]	(PR)
CC(Oc1c(Cl)cccc1Cl)C1=NCCN1 (centres unmarked) [Lofexidine]	(PR)
CC(C)COc1ccc(CNC(=O)N(Cc2ccc(F)cc2)C2CCN(C)CC2)cc1 [Pimavanserin]	(PR)
CCN(CC)CCCC(C)Nc1ccnc2cc(Cl)ccc12 (centres unmarked) [Chloroquine]	(KR)
C=C[C@H]1C[N@@]2CC[C@H]1C[C@H]2[C@H](O)c1ccnc2ccc(OC)cc12 [Quinine]	(CR)
CC(O)(CS(=O)(=O)c1ccc(F)cc1)C(=O)Nc1ccc(C#N)c(C(F)(F)F)c1 (centres unmarked) [Bicalutamide]	(PR)
CC(C)(C)NCC(O)c1cc(O)cc(O)c1 (centres unmarked) [Terbutaline]	(SR)
CCCCc1oc2ccc(NS(C)(=O)=O)cc2c1C(=O)c1ccc(OCCCN(CCCC)CCCC)cc1 [Dronedarone]	(KR)
CCN(CC)CCNC(=O)c1cc(S(C)(=O)=O)ccc1OC [Tiapride]	(PR)
C[C@H]1NCc2cc(-c3ccc4c(=O)c(C(=O)O)cn(C5CC5)c4c3OC(F)F)ccc21 [Garenoxacin]	(CR)

SMILES	Risk (Torsade de Pointes)
CN/C(=N/CCSCc1nc[nH]c1C)NC#N [Cimetidine]	(CR)
CN(C)C(=O)c1cc2cnc(Nc3ccc(N4CCNCC4)cn3)nc2n1C1CCCC1 [Ribociclib]	(PR)
CC[C@H](O)C(C[C@H](C)N(C)C)(c1ccccc1)c1ccccc1 [Levomethadyl]	(KR)
NCCc1ccc(O)c(O)c1 [Dopamine]	(SR)
COc1cccc(C2(O)CCCCC2CN(C)C)c1 (centres unmarked) [Tramadol]	(PR)
CN1CC[C@@H](NC(=O)Nc2ccc(C#N)cc2)C[C@@H]1c1nc2ccccc2[nH]1 [Glasdegib]	(PR)
CNC(=O)c1ccc(N2C(=S)N(c3cnc(C#N)c(C(F)(F)F)c3)C(=O)C23CCC3)cc1F [Apalutamide]	(PR)
N=C(N)c1ccc(OCCCCCOc2ccc(C(=N)N)cc2)cc1 [Pentamidine]	(KR)
COc1ccc2c(c1)N(C[C@H](C)CN(C)C)c1ccccc1S2 [Levomepromazine]	(KR)
[2H]C([2H])([2H])Oc1cc2c(cc1OC([2H])([2H])[2H])C1CC(=O)C(CC(C)C)CN1CC2 (centres unmarked) [Deutetrabenazine]	(PR)
C[C@@H]1CN(c2c(F)c(N)c3c(=O)c(C(=O)O)cn(C4CC4)c3c2F)C[C@H](C)N1 [Sparfloxacin]	(KR)
CCN1CCC[C@H]1CNC(=O)c1cc(S(N)(=O)=O)ccc1OC [Levosulpiride]	(KR)
Cc1nccn1CC1CCc2c(c3ccccc3n2C)C1=O (centres unmarked) [Ondansetron]	(KR)
COc1cc(C(C)=O)ccc1OCCCN1CCC(c2noc3cc(F)ccc23)CC1 [Iloperidone]	(PR)
CCN(CC)CCNC(=O)c1c(C)[nH]c(/C=C2\C(=O)Nc3ccc(F)cc32)c1C [Sunitinib]	(PR)
CC[C@H]1OC(=O)[C@H](C)[C@@H](O[C@H]2C[C@@](C)(OC)[C@@H](O)[C@H](C)O2)[C@H](C)[C@@H](O[C@@H]2O[C@H](C)C[C@H](N(C)C)[C@H]2O)[C@](C)(O)C[C@@H](C)CN(C)[C@H](C)[C@@H](O)[C@]1(C)O [Azithromycin]	(KR)
CCN1CCCC1CNC(=O)c1cc(S(=O)(=O)CC)c(N)cc1OC (centres unmarked) [Amisulpride]	(CR)
O=C1NCCN1CCN1CCC(c2cn(-c3ccc(F)cc3)c3ccc(Cl)cc23)CC1 [Sertindole]	(KR)
CNCC[C@@H](Oc1ccccc1C)c1ccccc1 [Atomoxetine]	(PR)
CN1CCN(C2=Nc3ccccc3Sc3ccc(Cl)cc32)CC1 [Clotiapine]	(PR)
NS(=O)(=O)c1cc(C(=O)O)c(NCc2ccco2)cc1Cl [Furosemide]	(CR)
CC(C)NCC(O)c1ccc(O)c(O)c1 (centres unmarked) [Isoproterenol]	(SR)
CCCCCCCN(CC)CCCC(O)c1ccc(NS(C)(=O)=O)cc1 (centres unmarked) [Ibutilide]	(KR)
CN(C)CCC=C1c2ccccc2COc2ccccc21 [Doxepin]	(CR)

SMILES	Risk (Torsade de Pointes)
OCCN1CCN(CC/C=C2/c3ccccc3Sc3ccc(Cl)cc32)CC1 [Zuclopenthixol]	(PR)
CNCCCC12CCC(c3ccccc31)c1ccccc12 [Maprotiline]	(PR)
COc1cc(N)c(Cl)cc1C(=O)NC1CCN(CCCOc2ccc(F)cc2)CC1OC (centres unmarked) [Cisapride]	(KR)
CCNC(C)Cc1cccc(C(F)(F)F)c1 (centres unmarked) [Fenfluramine]	(SR)
C[C@@H](Cc1ccccc1)N(C)Cc1ccccc1 [Benzphetamine]	(SR)
O=C1CCc2ccc(OCCCCN3CCN(c4cccc(Cl)c4Cl)CC3)cc2N1 [Aripiprazole]	(PR)
Cc1ccccc1N1C(=O)c2cc(S(N)(=O)=O)c(Cl)cc2NC1C (centres unmarked) [Metolazone]	(CR)
CN(C)CCCN1c2ccccc2Sc2cccnc21 [Prothipendyl]	(PR)
CNCCCN1c2ccccc2CCc2ccccc21 [Desipramine]	(PR)
NC(N)=Nc1nc(CSCCC(N)=NS(N)(=O)=O)cs1 [Famotidine]	(CR)
CN1[C@@H]2CC[C@H]1C[C@@H](OC(=O)c1c[nH]c3ccccc13)C2 [Tropisetron]	(PR)
CN1CC2c3ccccc3Oc3ccc(Cl)cc3C2C1 (centres unmarked) [Asenapine]	(PR)
O=c1[nH]cc(F)c(=O)[nH]1 [Fluorouracil]	(PR)
CN(CCOc1ccc(NS(C)(=O)=O)cc1)CCc1ccc(NS(C)(=O)=O)cc1 [Dofetilide]	(KR)
COc1ccc(NC(=O)c2ccc(C(=N)N(C)C)cc2)c(C(=O)Nc2ccc(Cl)cn2)c1 [Betrixaban]	(PR)
O=C1[C@@H]2[C@H]3CC[C@H](C3)[C@@H]2C(=O)N1C[C@@H]1CCCC[C@H]1CN1CCN(c2nsc3ccccc23)CC1 [Lurasidone]	(PR)
Cc1nc(Nc2ncc(C(=O)Nc3c(C)cccc3Cl)s2)cc(N2CCN(CCO)CC2)n1 [Dasatinib]	(PR)
CC(=O)NC[C@H]1CN(c2ccc(N3CCOCC3)c(F)c2)C(=O)O1 [Linezolid]	(PR)
CC[C@H]1OC(=O)[C@H](C)C(=O)[C@H](C)[C@@H](O[C@@H]2O[C@H](C)C[C@H](N(C)C)[C@H]2O)[C@](C)(OC)C[C@@H](C)C(=O)[C@H](C)[C@H]2N(CCCCn3cnc(-c4cccnc4)c3)C(=O)O[C@]12C [Telithromycin]	(PR)
CC(C)N(CCC(C(N)=O)(c1ccccc1)c1ccccn1)C(C)C (centres unmarked) [Disopyramide]	(KR)
CN1CCc2cccc3c2[C@H]1Cc1ccc(O)c(O)c1-3 [Apomorphine]	(PR)
C[C@@H](Cc1ccccc1)NC(=O)[C@@H](N)CCCCN [Lisdexamfetamine]	(SR)
CC[C@@H](C(N)=O)N1CCCC1=O [Levetiracetam]	(PR)
